Patent publication US12679846B2, “Xanthone compound having excellent anticancer effect” (KOREA INSTITUTE OF OCEAN SCIENCE & TECHNOLOGY, priority 2021, dated 2026)

Assays:
[1] = system: various types of cancer cell lines; experiment: Cytotoxicity test (SRB assay), summary over the six cancer cell lines; assay type: cell-based; conditions: Homo sapiens; range over six cancer cell lines; read-out: GI50 values ranging (over the cell lines of Table 2)
Description: (§1) Human cancer cell lines HCT-15 (colon cancer), NUGC-3 (stomach cancer), NCI-H23 ([…]), ACHN (kidney cancer), PC-3 (prostate cancer), and MDA-MB-231 (breast cancer) were purchased and used from American Type Culture Collection (Manassas, VA).
(§2) Each of the cancer cell lines was cultured in RPMI 1640 supplemented with 10% fetal bovine serum (FBS) at 37° C. in a humidified atmosphere of 5% CO2. Growth inhibition was evaluated for human cancer cell lines using a sulforhodamine B (SRB) assay. The cells were dispensed in a 96-well plate at a density of 8000 cells/well, and the next day, the cells were treated with each of Examples 1 and 2 (0.1% DMSO as vehicle control), and a positive control group was treated with Adriamycin. The cells were cultured for 48 hours, and then each culture medium was fixed with 50% trichloroacetic acid ([…]) and stained using 0.4% sulforhodamine B in 1% acetic acid. An unbound dye was washed with 1% acetic acid, and the dye bound to a protein was extracted with 10 mM Tris base (pH 10.5) to determine the optical density. Absorbance at 540 nm was determined using a VersaMax microplate reader (Molecular Devices, LLC, Sunnyvale, CA, USA). GI50 values were calculated using GraphPad Prism 4.0 software (GraphPad Software, Inc., San Diego, CA, USA), and the results are described in Table 2 below.

[2] = system: human-derived breast cancer cell line MDA-MB-231; experiment: Anticancer effect in animal test on breast cancer cell line (MDA-MB-231) transplanted in nude mice; assay type: in vivo, BALB/C nude mouse; conditions: for Inhibition rate (tumor size, vs Control group); tumor growth inhibition: day 23 (last day)
Description: Cancer cells (human-derived breast cancer cell line MDA-MB-231) that had been frozen-stored in liquid nitrogen were thawed and then cultured. The cells were cultured in a CO2 incubator (NuAire, USA) at a temperature of 37° C. and a CO2 concentration of 5%.
Lineage and Sex: Specific pathogen-free (SPF) BALB/C strain and female nude mouse (Orient Bio Co., Ltd.)
Week-old: Age at time of obtainment—5 week-old/Age at time of cancer cell transplantation—6 week-old/Age at time of drug administration—7 week-old
On the final day of cancer cell culture, all cancer cells were collected and counted, and the cell concentration was adjusted to 3×10^7 cells/ml using serum free media. 0.3 ml (9×10^6 cells/mouse) of the cell culture medium adjusted in this way per mouse was injected subcutaneously in the axillary area between the right scapular region and chest wall.
Calculation of Tumor Size Changes
After cancer cell transplantation, until the 23rd day since the average tumor size for each group reached about 14.2 mm^3, tumor sizes were measured a total 11 times in three directions using Vernier calipers for each individual, and then expressed in Equation of length×width×height/2.
On the 23rd day after the start of drug administration, all subjects were killed using CO2 gas, and the tumors were separated, weighed on chemical balance, and photographed.
Statistical analysis was performed using GraphPad Prism software from GraphPad Software. Changes in body weight and tumor volume according to a day were analyzed using a Bonferroni multiple comparison test after two-way ANOVA, and tumor weight on the final day was analyzed using a Dunnett's multiple comparison test after one-way ANOVA.

HCT-15 (colon cancer) = experiment: Cytotoxicity test against cancer cell lines (SRB assay), HCT-15; assay type: cell-based; conditions: Homo sapiens, HCT-15, 48 hours
Description: as §1, §2

ACHN (kidney cancer) = experiment: Cytotoxicity test against cancer cell lines (SRB assay), ACHN; assay type: cell-based; conditions: Homo sapiens, 48 hours
Description: as §1, §2

NUGC-3 (stomach cancer) = experiment: Cytotoxicity test against cancer cell lines (SRB assay), NUGC-3; assay type: cell-based; conditions: Homo sapiens, NUGC-3, 48 hours
Description: as §1, §2

[3] = system: MDA-MB-231 (breast cancer); experiment: Cytotoxicity test against cancer cell lines (SRB assay), MDA-MB-231; assay type: cell-based; conditions: Homo sapiens, MDA-MB-231, 48 hours
Description: as §1, §2

NCI-H23 = experiment: Cytotoxicity test against cancer cell lines (SRB assay), NCI-H23; assay type: cell-based; conditions: Homo sapiens, NCI-H23, 48 hours
Description: as §1, §2

PC-3 (prostate cancer) = experiment: Cytotoxicity test against cancer cell lines (SRB assay), PC-3; assay type: cell-based; conditions: Homo sapiens, PC-3, 48 hours
Description: as §1, §2

[4] = General symptoms and autopsy findings in MDA-MB-231 cancer cell transplant nude mice; conditions: 2 mg/kg repeatedly intraperitoneally
Description: Preparation and Administration of Experimental Substances Samples were prepared for administration in Examples 1 and 2. Each of the two compounds prepared above was dissolved in dimethylacetamide (DMAC) to make 0.1 mg/ml of a stock, and then 10% tween80 and 20% HPβCD 80% were added stepwise to a 10% DMAC stock to be prepared at a final concentration of 0.01 mg/ml, and as a comparison group for comparison of anticancer effects, doxorubicin was dissolved in physiological saline to prepare an experimental substance at a concentration of 0.2 mg/ml. The prepared experimental substance was repeatedly administered intraperitoneally total 18 times by 0.2 ml per 20 g of the mouse, 5 times a week on a dosing schedule (days 0 to 4, 7 to 11, 14 to 19, 21 to 23).

[5] = day 2, 0.1 mg/kg intraperitoneally
[6] = day 4, 0.1 mg/kg intraperitoneally
[7] = day 7, 0.1 mg/kg intraperitoneally
[8] = day 9, 0.1 mg/kg intraperitoneally
[9] = day 11, 0.1 mg/kg intraperitoneally
[10] = day 14, 0.1 mg/kg intraperitoneally
[11] = day 16, 0.1 mg/kg intraperitoneally
[12] = day 18, 0.1 mg/kg intraperitoneally
[13] = day 21, 0.1 mg/kg intraperitoneally
[14] = day 23, 0.1 mg/kg intraperitoneally
[15] = day 2, 2 mg/kg intraperitoneally
[16] = day 4, 2 mg/kg intraperitoneally
[17] = day 7, 2 mg/kg intraperitoneally
[18] = day 9, 2 mg/kg intraperitoneally
[19] = day 11, 2 mg/kg intraperitoneally
[20] = day 14, 2 mg/kg intraperitoneally
[21] = day 16, 2 mg/kg intraperitoneally
[22] = day 18, 2 mg/kg intraperitoneally
[23] = day 21, 2 mg/kg intraperitoneally
[24] = day 23, 2 mg/kg intraperitoneally

SMILES: COc1ccc2c(=O)c3c(O)c4c(c(O)c3oc2c1OC)CCc1c(OC2OC(C)C(OC)C(OC)C2OC)c2c(c(O)c1-4)C(=O)OC(C)C2 (stereo not shown) [Example 2, 8,15,16-trihydroxy-10,11-dimethoxy-3-methyl-5-((3,4,5-trimethoxy-6-methyltetrahydro-2H-pyran-2-yl)oxy)-3,4,6,7-tetrahydropyrano[4′,3′:6,7]naphtho[1,2-b]xanthene-1,14-dione]
- GI50 [1]: 3 to 5 nM
- Tumor size (Δt = Vt − Vo) ([2]; day 0, 0.1 mg/kg intraperitoneally): 0 mm^3
- Inhibition rate (tumor size, vs Control group) [2, 5]: 53.2%
- Tumor size (Δt = Vt − Vo) [2, 5]: 5.8 mm^3
- Inhibition rate (tumor size, vs Control group) [2, 6]: 59.3%
- Tumor size (Δt = Vt − Vo) [2, 6]: 10.1 mm^3
- Inhibition rate (tumor size, vs Control group) [2, 7]: 51.6%
- Tumor size (Δt = Vt − Vo) [2, 7]: 23.6 mm^3
- Inhibition rate (tumor size, vs Control group) [2, 8]: 49.3%
- Tumor size (Δt = Vt − Vo) [2, 8]: 30.1 mm^3
- Inhibition rate (tumor size, vs Control group) [2, 9]: 43.3%
- Tumor size (Δt = Vt − Vo) [2, 9]: 53.1 mm^3
- Inhibition rate (tumor size, vs Control group) [2, 10]: 50.7%
- Tumor size (Δt = Vt − Vo) [2, 10]: 96.9 mm^3
- Inhibition rate (tumor size, vs Control group) [2, 11]: 57.9%
- Tumor size (Δt = Vt − Vo) [2, 11]: 155.5 mm^3
- Inhibition rate (tumor size, vs Control group) [2, 12]: 46.1%
- Tumor size (Δt = Vt − Vo) [2, 12]: 297 mm^3
- Inhibition rate (tumor size, vs Control group) [2, 13]: 54.6%
- Tumor size (Δt = Vt − Vo) [2, 13]: 447.7 mm^3
- Inhibition rate (tumor size, vs Control group); tumor growth inhibition ([2]; 0.1 mg/kg intraperitoneally): 56.7%
- Inhibition rate (tumor weight, vs Control group); reduction in tumor weight [2, 14]: 52.8%
- Tumor size (Δt = Vt − Vo) [2, 14]: 593.3 mm^3
- Tumor weight on final day [2, 14]: 1033.4 mg
- GI50 (HCT-15 (colon cancer)): 5 nM
- GI50 (ACHN (kidney cancer)): 5 nM
- GI50 (NUGC-3 (stomach cancer)): 3 nM
- GI50 [3]: 4 nM
- GI50 (NCI-H23): 4 nM
- GI50 (PC-3 (prostate cancer)): 3 nM

SMILES: COc1cccc2c1C(=O)c1c(O)c3c(c(O)c1C2=O)C[C@@](O)(C(=O)CO)C[C@@H]3O[C@H]1C[C@H](N)[C@H](O)[C@H](C)O1 [doxorubicin]
- Tumor size (Δt = Vt − Vo) ([2]; day 0, 2 mg/kg intraperitoneally): 0 mm^3
- Inhibition rate (tumor size, vs Control group) [2, 15]: 65.3%
- Tumor size (Δt = Vt − Vo) [2, 15]: 4.3 mm^3
- Inhibition rate (tumor size, vs Control group) [2, 16]: 64%
- Tumor size (Δt = Vt − Vo) [2, 16]: 8.9 mm^3
- Inhibition rate (tumor size, vs Control group) [2, 17]: 67.8%
- Tumor size (Δt = Vt − Vo) [2, 17]: 15.7 mm^3
- Inhibition rate (tumor size, vs Control group) [2, 18]: 67.9%
- Tumor size (Δt = Vt − Vo) [2, 18]: 19.1 mm^3
- Inhibition rate (tumor size, vs Control group) [2, 19]: 70.4%
- Tumor size (Δt = Vt − Vo) [2, 19]: 27.7 mm^3
- Inhibition rate (tumor size, vs Control group) [2, 20]: 80.5%
- Tumor size (Δt = Vt − Vo) [2, 20]: 38.3 mm^3
- Inhibition rate (tumor size, vs Control group) [2, 21]: 83%
- Tumor size (Δt = Vt − Vo) [2, 21]: 62.7 mm^3
- Inhibition rate (tumor size, vs Control group) [2, 22]: 83.3%
- Tumor size (Δt = Vt − Vo) [2, 22]: 92 mm^3
- Inhibition rate (tumor size, vs Control group) [2, 23]: 77.5%
- Tumor size (Δt = Vt − Vo) [2, 23]: 222.1 mm^3
- Inhibition rate (tumor size, vs Control group); tumor growth inhibition ([2]; 2 mg/kg intraperitoneally, listed as Comparison group, 2 mg/kg): 79%
- Inhibition rate (tumor size, vs Control group); tumor growth inhibition ([2]; 2 mg/kg intraperitoneally, listed as comparison group, 2 mg/kg): 79.0%
- Inhibition rate (tumor weight, vs Control group); reduction in tumor weight [2, 24]: 75.9%
- Tumor size (Δt = Vt − Vo) [2, 24]: 287.9 mm^3
- Tumor weight on final day [2, 24]: 527.9 mg
- GI50 (HCT-15 (colon cancer)): 153 nM
- General symptoms during administration and organs upon necropsy on the final day [4]: no abnormal findings
- GI50 (ACHN (kidney cancer)): 151 nM
- GI50 (NUGC-3 (stomach cancer)): 145 nM
- GI50 [3]: 146 nM
- GI50 (NCI-H23): 139 nM
- GI50 (PC-3 (prostate cancer)): 137 nM
